Laboratory results from patent US20260042731A1, “(2,4-DICHLOROPHENOXY)ACETIC ACID ANALOGS” (CORTEVA AGRISCIENCE LLC, priority 2022, published 2026).
Like-named read-outs stand apart in the source and are kept apart here.

Legend:
[1] = test system: Amaranthus rudis (AMATA), tall water hemp; experiment: Postemergence herbicide evaluation, growth of Amaranthus rudis (AMATA); format: in vivo; details: Amaranthus tuberculatus, post-emergence, read-out: Ave. AMATA, percent reduction in plant size relative to the untreated control; for pest or weed control at 280 g/ha: 280 g ae/ha; for pest or weed control at 560 g/ha: 560 g ae/ha
[2] = test system: Ambrosia artemisiifolia (AMBEL), common ragweed; experiment: Postemergence herbicide evaluation, growth of Ambrosia artemisiifolia (AMBEL); format: in vivo; details: Ambrosia artemisiifolia, post-emergence, read-out: AVE. AMBEL, percent reduction in plant size relative to the untreated control; for pest or weed control at 280 g/ha: 280 g ae/ha; for pest or weed control at 560 g/ha: 560 g ae/ha
[3] = test system: Abutilon theophrasti (ABUTH), velvetleaf; experiment: Postemergence herbicide evaluation, growth of Abutilon theophrasti (ABUTH); format: in vivo; details: Abutilon theophrasti, post-emergence, read-out: AVE. ABUTH, percent reduction in plant size relative to the untreated control; for pest or weed control at 280 g/ha: 280 g ae/ha; for pest or weed control at 560 g/ha: 560 g ae/ha
[4] = test system: Chenopodium album (CHEAL), common lambsquarters; experiment: Postemergence herbicide evaluation, growth of Chenopodium album (CHEAL); format: in vivo; details: Chenopodium album, post-emergence, read-out: Ave. CHEAL, percent reduction in plant size relative to the untreated control; for pest or weed control at 280 g/ha: 280 g ae/ha; for pest or weed control at 560 g/ha: 560 g ae/ha
[5] = test system: glyphosate resistant Conyza canadensis (L.) (ERICA), horseweed; experiment: Postemergence herbicide evaluation, growth of Conyza canadensis (ERICA); format: in vivo; details: Erigeron canadensis, post-emergence, read-out: Ave. ERICA, percent reduction in plant size relative to the untreated control; for pest or weed control at 280 g/ha: 280 g ae/ha; for pest or weed control at 560 g/ha: 560 g ae/ha
[6] = Volatility of compounds measured by thermogravimetric analysis (TGA); format: physicochemical
[7] = test system: weeds ABUTH, AMATA, AMBEL, CHEAL, ERICA; experiment: Postemergence herbicide evaluation, overall average % weed control (ABUTH, AMATA, AMBEL, CHEAL, ERICA); format: in vivo; details: post-emergence, read-out: Overall Ave % Weed Control; for pest or weed control at 280 g/ha: 280 g ae/ha; for pest or weed control at 560 g/ha: 560 g ae/ha

SMILES	pest or weed control at 280 g/ha ([1]; 168 h, 7 DAA) [%]	pest or weed control at 560 g/ha ([1]; 168 h, 7 DAA) [%]	pest or weed control at 280 g/ha ([1]; 336 h, 14 DAA) [%]	pest or weed control at 560 g/ha ([1]; 336 h, 14 DAA) [%]	pest or weed control at 280 g/ha ([1]; 504 h, 21 DAA) [%]	pest or weed control at 560 g/ha ([1]; 504 h, 21 DAA) [%]	pest or weed control at 280 g/ha ([2]; 168 h, 7 DAA) [%]	pest or weed control at 560 g/ha ([2]; 168 h, 7 DAA) [%]	pest or weed control at 280 g/ha ([2]; 336 h, 14 DAA) [%]	pest or weed control at 560 g/ha ([2]; 336 h, 14 DAA) [%]	pest or weed control at 280 g/ha ([2]; 504 h, 21 DAA) [%]	pest or weed control at 560 g/ha ([2]; 504 h, 21 DAA) [%]	pest or weed control at 280 g/ha ([3]; 168 h, 7 DAA) [%]	pest or weed control at 560 g/ha ([3]; 168 h, 7 DAA) [%]	pest or weed control at 280 g/ha ([3]; 336 h, 14 DAA) [%]	pest or weed control at 560 g/ha ([3]; 336 h, 14 DAA) [%]	pest or weed control at 280 g/ha ([3]; 504 h, 21 DAA) [%]	pest or weed control at 560 g/ha ([3]; 504 h, 21 DAA) [%]	pest or weed control at 280 g/ha ([4]; 168 h, 7 DAA) [%]	pest or weed control at 560 g/ha ([4]; 168 h, 7 DAA) [%]	other results
C/C(=N\OC(=O)COc1ccc(Cl)cc1Cl)c1ccccc1 [Compound A1, Acetophenone O-(2-(2,4-dichlorophenoxy)acetyl) oxime]	73	78	85	87	80	82	65	80	88	97	95	100	83	85	96	97	97	100	70	70	pest or weed control at 280 g/ha ([4]; 336 h, 14 DAA): 78%; pest or weed control at 560 g/ha ([4]; 336 h, 14 DAA): 89%; pest or weed control at 280 g/ha ([4]; 504 h, 21 DAA): 83%; pest or weed control at 560 g/ha ([4]; 504 h, 21 DAA): 98%; pest or weed control at 280 g/ha ([5]; 168 h, 7 DAA): 73%; pest or weed control at 560 g/ha ([5]; 168 h, 7 DAA): 73%; pest or weed control at 280 g/ha ([5]; 336 h, 14 DAA): 90%; pest or weed control at 560 g/ha ([5]; 336 h, 14 DAA): 90%; pest or weed control at 280 g/ha ([5]; 504 h, 21 DAA): 93%; pest or weed control at 560 g/ha ([5]; 504 h, 21 DAA): 98%; TGA Data (rate of weight loss, volatility) [6]: 0.5 µg/min; pest or weed control at 280 g/ha ([7]; 168 h, 7 DAA): 73%; pest or weed control at 560 g/ha ([7]; 168 h, 7 DAA): 77%; pest or weed control at 280 g/ha ([7]; 336 h, 14 DAA): 87%; pest or weed control at 560 g/ha ([7]; 336 h, 14 DAA): 92%; pest or weed control at 280 g/ha ([7]; 504 h, 21 DAA): 89%; pest or weed control at 560 g/ha ([7]; 504 h, 21 DAA): 95%
O=C(COc1ccc(Cl)cc1Cl)O/N=C/c1ccccc1 [Compound A2, (E)-benzaldehyde O-(2-(2,4-dichlorophenoxy)acetyl) oxime]	68	75	70	88	73	87	65	73	92	96	91	100	85	85	94	96	98	96	70	73	pest or weed control at 280 g/ha ([4]; 336 h, 14 DAA): 70%; pest or weed control at 560 g/ha ([4]; 336 h, 14 DAA): 85%; pest or weed control at 280 g/ha ([4]; 504 h, 21 DAA): 73%; pest or weed control at 560 g/ha ([4]; 504 h, 21 DAA): 87%; pest or weed control at 280 g/ha ([5]; 168 h, 7 DAA): 68%; pest or weed control at 560 g/ha ([5]; 168 h, 7 DAA): 73%; pest or weed control at 280 g/ha ([5]; 336 h, 14 DAA): 93%; pest or weed control at 560 g/ha ([5]; 336 h, 14 DAA): 85%; pest or weed control at 280 g/ha ([5]; 504 h, 21 DAA): 90%; pest or weed control at 560 g/ha ([5]; 504 h, 21 DAA): 98%; TGA Data (rate of weight loss, volatility) [6]: 0.8 µg/min; pest or weed control at 280 g/ha ([7]; 168 h, 7 DAA): 71%; pest or weed control at 560 g/ha ([7]; 168 h, 7 DAA): 76%; pest or weed control at 280 g/ha ([7]; 336 h, 14 DAA): 84%; pest or weed control at 560 g/ha ([7]; 336 h, 14 DAA): 90%; pest or weed control at 280 g/ha ([7]; 504 h, 21 DAA): 87%; pest or weed control at 560 g/ha ([7]; 504 h, 21 DAA): 93%
